Measured values taken from paper PMC10226132, “First-in-Class Selective Inhibitors of the Lysine Acetyltransferase KAT8” (Journal of Medicinal Chemistry, 2023).
Like-named read-outs stand apart in the source and are kept apart here.

How the values were obtained:
Assay type in all cases: biochemical
[1] = target: T1, KAT2B (Homo sapiens, UniProt Q92831); experiment: HotSpot KAT assay, KAT2B; details: enzyme 25 nM; NI = no inhibition at 200 μM; mean ± SD of three independent experiments
T1 construct: KAT2B (aa 492–658, 25 nM); purchased Reaction Biology Corporation
Method: The effects of the compounds on other KATs were determined using the HotSpot KAT assay (Reaction Biology Corporation, Malvern, PA, USA) according to the supplier’s procedure. The recombinant catalytic domains of human KAT2A (aa 323–837, 15 nM), KAT2B (aa 492–658, 25 nM), KAT3B (aa 1284–1672, 1 nM), KAT6A (aa 488–778, 10 nM), KAT6B (aa 657–1069, 10 nM), and full length human KAT5 (25 nM) and KAT7 (25 nM) were used. Each enzyme was incubated with the relevant histone peptide [H3 peptide for KAT2A, KAT2B, KAT3B, KAT6A, and KAT7 (2.5–5 μM, depending on the KAT isoform); H2A peptide for KAT5 (1.25 μM); H4 peptide for KAT6B (2.5 μM)] as a substrate and radio-isotope-labeled [^3H]Acetyl-CoA (0.2–1.5 μM, depending on the KAT isoform) as an acetyl donor in the assay buffer [50 mM Tris–HCl (pH 8.0), 50 mM NaCl, 0.1 mM EDTA, 1 mM DTT, 0.1 mM PMSF, 1% DMSO] for 1 h at 30 °C in the presence or absence of various compounds (1% DMSO final) titrated in a 2-fold serial dilution starting at 200 μM. Histone peptide acetylation was assessed by liquid scintillation counting using a Tri-Carb 2800TR Liquid Scintillation Analyzer (Perkin Elmer). Experiments were performed in biological triplicates. Signal reduction compared to control was plotted (as inhibition percentage) as a function of compound concentration. In cases in which an IC50 was calculated, the values were fitted by nonlinear regression (GraphPad Prism 8.0).

[2] = target: T2, KAT8 (Homo sapiens, UniProt Q9H7Z6); experiment: Radioactive KAT8 inhibition assay
T2 construct: using the previously purified KAT8 (173–458, 5 nM); 6xHis tag with TEV protease cleavage site (N, cleaved yes); made in house; host or cells: E. coli BL21(DE3)
T2 sequence (Q9H7Z6 173-458): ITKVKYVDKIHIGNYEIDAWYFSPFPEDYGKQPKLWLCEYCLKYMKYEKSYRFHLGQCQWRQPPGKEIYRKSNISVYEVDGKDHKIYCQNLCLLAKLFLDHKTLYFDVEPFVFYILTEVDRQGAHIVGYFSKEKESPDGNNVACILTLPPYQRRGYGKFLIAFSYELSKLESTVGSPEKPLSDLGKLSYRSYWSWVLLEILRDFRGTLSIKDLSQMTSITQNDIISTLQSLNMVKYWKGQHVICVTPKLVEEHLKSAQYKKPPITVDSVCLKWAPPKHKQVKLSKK
Method: Purified KAT8 was incubated with the relevant inhibitor (1% DMSO final) in a 2-fold serial dilution starting at 200 μM for 20 min at rt. Then, [^3H]Ac-CoA and biotinylated peptide were added to a total assay volume of 50 μL and the reaction mixture was incubated at rt for 4 h. The reaction was stopped, and the mixture was transferred to a 96-well streptavidin scintillant coated FlashPlate (Perkin Elmer) and incubated for 60 min at rt. The FlashPlate was washed with 0.1% Tween-20, and the liquid scintillation counting (MicroBeta Microplate Counter, Perkin Elmer) was employed to measure the radioactive signal. Experiments were performed in biological triplicates. Signal reduction compared to control was plotted (as inhibition percentage) as a function of compound concentration and fitted by nonlinear regression (GraphPad Prism 8.0) finally yielding the IC50 values.

[3] = target: T3, KAT3B (Homo sapiens, UniProt Q09472); experiment: HotSpot KAT assay, KAT3B
T3 construct: KAT3B (aa 1284–1672, 1 nM); purchased Reaction Biology Corporation
T3 sequence (Q09472 1284-1672): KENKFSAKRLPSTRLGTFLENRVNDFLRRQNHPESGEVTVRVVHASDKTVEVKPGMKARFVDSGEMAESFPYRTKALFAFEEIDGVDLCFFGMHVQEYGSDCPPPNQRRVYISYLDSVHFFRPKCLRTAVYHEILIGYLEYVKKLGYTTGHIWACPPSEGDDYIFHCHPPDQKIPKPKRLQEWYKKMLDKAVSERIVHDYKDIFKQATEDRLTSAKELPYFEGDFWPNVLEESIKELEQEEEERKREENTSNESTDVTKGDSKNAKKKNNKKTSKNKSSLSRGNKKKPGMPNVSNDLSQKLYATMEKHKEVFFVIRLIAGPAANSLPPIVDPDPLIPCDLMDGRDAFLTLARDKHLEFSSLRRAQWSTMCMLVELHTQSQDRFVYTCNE
Method: The effects of the compounds on other KATs were determined using the HotSpot KAT assay (Reaction Biology Corporation, Malvern, PA, USA) according to the supplier’s procedure. […] Histone peptide acetylation was assessed by liquid scintillation counting using a Tri-Carb 2800TR Liquid Scintillation Analyzer (Perkin Elmer). Experiments were performed in biological triplicates. Signal reduction compared to control was plotted (as inhibition percentage) as a function of compound concentration. In cases in which an IC50 was calculated, the values were fitted by nonlinear regression (GraphPad Prism 8.0).

[4] = read-out: IC50 KAT8 (5 nM), enzyme 5 nM, 2-fold serial dilution from 200 μM, NI = no inhibition at 200 μM, mean ± SD of three independent experiments
[5] = read-out: IC50 KAT3B (1 nM), enzyme 1 nM, NI = no inhibition at 200 μM, mean ± SD of three independent experiments

T1 sequence (Q92831 492-658): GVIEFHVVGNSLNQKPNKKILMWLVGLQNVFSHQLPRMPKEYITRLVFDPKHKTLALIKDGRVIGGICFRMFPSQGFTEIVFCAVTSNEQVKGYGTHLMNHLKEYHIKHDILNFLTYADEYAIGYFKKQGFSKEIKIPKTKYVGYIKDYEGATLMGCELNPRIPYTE

Row | Structure (SMILES) | IC50 [2, 4] [µM] | further results
1 | CC1=NN(c2ccc(C(=O)O)cc2)C(=O)C1=Cc1ccco1 (mixture of isomers) [Compound 20, 4-(4-(Furan-2-ylmethylene)-3-methyl-5-oxo-4,5-dihydro-1H-pyrazol-1-yl)benzoic Acid] |  | IC50 [1]: > 200 µM; IC50 [2]: 16.8 ± 0.9 µM; IC50 [3]: 6.3 ± 0.4 µM
2 | CC1=NN(c2ccc(C(=O)O)cc2)C(=O)/C1=C\c1cc(C(=O)c2ccccc2)c[nH]1 [Compound 1, (Z)-4-(4-((4-Benzoyl-1H-pyrrol-2-yl)methylene)-3-methyl-5-oxo-4,5-dihydro-1H-pyrazol-1-yl)benzoic Acid] | 90.5 ± 11.3 | IC50 [1]: > 200 µM; IC50 [3, 5]: 13.6 ± 1 µM
3 | CC1=NN(c2ccc(C(=O)O)cc2)C(=O)/C1=C\c1cc(C(=O)c2ccccc2[N+](=O)[O-])c[nH]1 [Compound 2, (Z)-4-(3-Methyl-4-((4-(2-nitrobenzoyl)-1H-pyrrol-2-yl)methylene)-5-oxo-4,5-dihydro-1H-pyrazol-1-yl)benzoic Acid] | 86.2 ± 10 | IC50 [1]: > 200 µM; IC50 [3, 5]: 9.1 ± 0.6 µM
4 | CC1=NN(c2ccc(C(=O)O)cc2)C(=O)/C1=C\c1cc(C(=O)c2cccc([N+](=O)[O-])c2)c[nH]1 [Compound 3, (Z)-4-(3-Methyl-4-((4-(3-nitrobenzoyl)-1H-pyrrol-2-yl)methylene)-5-oxo-4,5-dihydro-1H-pyrazol-1-yl)benzoic Acid] | > 150 | 
5 | CC1=NN(c2ccc(C(=O)O)cc2)C(=O)/C1=C\c1cc(C(=O)c2ccc([N+](=O)[O-])cc2)c[nH]1 [Compound 4, (Z)-4-(3-Methyl-4-((4-(4-nitrobenzoyl)-1H-pyrrol-2-yl)methylene)-5-oxo-4,5-dihydro-1H-pyrazol-1-yl)benzoic Acid] | > 200 | 
6 | CC1=NN(c2ccc(C(=O)O)cc2)C(=O)/C1=C\c1cc(C(=O)c2cccc(Cl)c2)c[nH]1 [Compound 6, (Z)-4-(4-((4-(3-Chlorobenzoyl)-1H-pyrrol-2-yl)methylene)-3-methyl-5-oxo-4,5-dihydro-1H-pyrazol-1-yl)benzoic Acid] | > 150 | 
7 | CC1=NN(c2ccc(C(=O)O)cc2)C(=O)/C1=C\c1cc(C(=O)c2ccc(Cl)cc2)c[nH]1 [Compound 7, (Z)-4-(4-((4-(4-Chlorobenzoyl)-1H-pyrrol-2-yl)methylene)-3-methyl-5-oxo-4,5-dihydro-1H-pyrazol-1-yl)benzoic Acid] | > 200 | 
8 | CC1=NN(c2ccc(C(=O)O)cc2)C(=O)/C1=C\c1cc(C(=O)c2ccccc2F)c[nH]1 [Compound 8, (Z)-4-(4-((4-(2-Fluorobenzoyl)-1H-pyrrol-2-yl)methylene)-3-methyl-5-oxo-4,5-dihydro-1H-pyrazol-1-yl)benzoic Acid] | > 150 | 
9 | CC1=NN(c2ccc(C(=O)O)cc2)C(=O)/C1=C\c1cc(C(=O)c2cccc(F)c2)c[nH]1 [Compound 9, (Z)-4-(4-((4-(3-Fluorobenzoyl)-1H-pyrrol-2-yl)methylene)-3-methyl-5-oxo-4,5-dihydro-1H-pyrazol-1-yl)benzoic Acid] | > 200 | 
10 | COc1ccccc1C(=O)c1c[nH]c(/C=C2\C(=O)N(c3ccc(C(=O)O)cc3)N=C2C)c1 [Compound 10, (Z)-4-(4-((4-(2-Methoxybenzoyl)-1H-pyrrol-2-yl)methylene)-3-methyl-5-oxo-4,5-dihydro-1H-pyrazol-1-yl)benzoic Acid] |  | IC50 [2]: > 150 µM
11 | COc1cccc(C(=O)c2c[nH]c(/C=C3\C(=O)N(c4ccc(C(=O)O)cc4)N=C3C)c2)c1 [Compound 11, (Z)-4-(4-((4-(3-Methoxybenzoyl)-1H-pyrrol-2-yl)methylene)-3-methyl-5-oxo-4,5-dihydro-1H-pyrazol-1-yl)benzoic Acid] | > 200 | 
12 | CC1=NN(c2ccc(C(=O)O)cc2)C(=O)/C1=C\c1cc(C(=O)c2ccccc2O)c[nH]1 [Compound 12, (Z)-4-(4-((4-(2-Hydroxybenzoyl)-1H-pyrrol-2-yl)methylene)-3-methyl-5-oxo-4,5-dihydro-1H-pyrazol-1-yl)benzoic Acid] | > 200 | 
13 | CC1=NN(c2ccc(C(=O)O)cc2)C(=O)/C1=C\c1cc(C(=O)c2cccc(C)c2)c[nH]1 [Compound 14, (Z)-4-(3-Methyl-4-((4-(3-methylbenzoyl)-1H-pyrrol-2-yl)4ethylene)-5-oxo-4,5-dihydro-1H-pyrazol-1-yl)benzoic Acid] | > 200 | 
14 | CC(C)C1=NN(c2ccc(C(=O)O)cc2)C(=O)/C1=C\c1cc(C(=O)c2ccccc2[N+](=O)[O-])c[nH]1 [Compound 15, (Z)-4-(3-Isopropyl-4-((4-(2-nitrobenzoyl)-1H-pyrrol-2-yl)methylene)-5-oxo-4,5-dihydro-1H-pyrazol-1-yl)benzoic Acid] |  | IC50 [1]: > 200 µM; IC50 [2]: > 150 µM

More lines, main results first:

Row | IC50 [2, 4] [µM] | Structure (SMILES) | further results
15 | > 200 | CC1=NN(c2ccccc2)C(=O)/C1=C\c1cc(C(=O)c2ccccc2)c[nH]1 [Compound 16, (Z)-4-((4-Benzoyl-1H-pyrrol-2-yl)methylene)-5-methyl-2-phenyl-2,4-dihydro-3H-pyrazol-3-one] | 
16 | > 200 | CC1=NN(c2ccccc2)C(=O)/C1=C\c1cc(C(=O)c2ccccc2[N+](=O)[O-])c[nH]1 [Compound 17, (Z)-5-Methyl-4-((4-(2-nitrobenzoyl)-1H-pyrrol-2-yl)methylene)-2-phenyl-2,4-dihydro-3H-pyrazol-3-one] | 
17 | > 200 | CC1=NN(c2ccc(C(=O)O)cc2)C(=O)C1 [Compound 18] | 
18 | 52.2 ± 3.2 | CC1=NN(c2ccc(C(=O)NCCO)cc2)C(=O)/C1=C\c1ccc[nH]1 [Compound 40, (Z)-4-(4-((1H-Pyrrol-2-yl)methylene)-3-methyl-5-oxo-4,5-dihydro-1H-pyrazol-1-yl)-N-(2-hydroxyethyl)benzamide] | 
19 | > 200 | CC1=NN(c2ccc(C(=O)NCCCN3CCCC3)cc2)C(=O)/C1=C\c1ccc[nH]1 [Compound 41, (Z)-4-(4-((1H-Pyrrol-2-yl)methylene)-3-methyl-5-oxo-4,5-dihydro-1H-pyrazol-1-yl)-N-(3-(pyrrolidin-1-yl)propyl)benzamide] | 
20 | 54.7 ± 4 | CC1=NN(c2ccc(S(=O)(=O)O)cc2)C(=O)/C1=C\c1ccc[nH]1 [Compound 42, (Z)-4-(4-((1H-Pyrrol-2-yl)methylene)-3-methyl-5-oxo-4,5-dihydro-1H-pyrazol-1-yl)benzenesulfonic Acid] | 
21 | 59.4 ± 3.7 | CC1=NN(c2ccc(S(N)(=O)=O)cc2)C(=O)/C1=C\c1ccc[nH]1 [Compound 43, (Z)-4-(4-((1H-Pyrrol-2-yl)methylene)-3-methyl-5-oxo-4,5-dihydro-1H-pyrazol-1-yl)benzenesulfonamide] | 
